Measured values reported in article PMC8648872, “A host-directed macrocyclic peptide therapeutic for MDR gram negative bacterial infections” (Scientific Reports, 2021).
Where a SMILES comes first, the peptide text is derived from it. Bridges are numbered along the chain shown (N, C = ends).

What was measured:
Kp-1705 [1] = experiment: Viability and replication fitness of Kp-1705 at sub-MIC peptide; type: cell-based, K. pneumoniae; conditions: Kp-1705 (1 x 10^9 CFU/ml), 1 h with 1.25 µg/ml MTD12813; CFU on TSA, growth at A620
Method: Cryopreserved Kp-1705 was suspended in PBS to a density of ca. 1 × 10^9 CFU/ml, and incubated with saline or 1.25 µg/ml MTD12813 at room temperature for 1 h. Mice (n = 26) were then infected i.p. with 500 µl of saline- or MTD12813- pretreated Kp-1705, and a third cohort (n = 12) received 500 µl i.p. of 1.25 µg/ml MTD12813 immediately following infection with saline treated Kp-1705. Five mice from each cohort were euthanized 4 h p.i., and peritoneal lavage was collected for bacterial burden determination and cytospin preparation. In vitro antibacterial activity of MTD12813 (1.25 μg/ml) -treated cells (1 h; 37 °C) was determined by plating saline or peptide treated cells on TSA plates. Growth kinetics of saline and MTD12813-treated cells was determined by diluting samples from the 1 h incubation mixtures 1:40 into TSB and monitoring growth (620 nm) for 5.5 h at 37 °C. Antibacterial activity of MTD12813 in PF was determined by i.p. injection of naïve male BALB/c mice (n = 5 per group) with 1.25 mg/kg of MTD12813 or saline i.p. (10 ml/kg). […] Peritoneal fluid was clarified by centrifugation at 1200×g and an aliquot used to quantify MTD12813 by LC–MS/MS, as described above. Antimicrobial activity was determined by incubating PF (9:1 vol/vol) with Kp-1705 at a final density of 3 × 10^7 CFU/ml. […]
replication fitness of Kp-1705. […] (a) Bacterial viability was quantified as CFU on TSA plates. […]

[2] = Peptide stability with log-phase E. coli ATCC-BAA-2340 (bacterial proteases); type: in vitro ADME; conditions: suspension of log-phase E. coli ATCC-BAA-2340 bacteria, log-phase E. coli ATCC-BAA-2340, 50 mM HEPES, 37 °C, LC–MS/MS, read-out: MTD12813 found intact
Method: MTD12813 (final concentration of 100 µg/ml) was added to either 90% human EDTA plasma or 90% human serum and incubated at 37 °C for 48 h. Samples were processed by addition of 10% HOAc and 5% ACN (final concentrations) at time 0 and 48 h, and MTD12813 was quantified by C18 RP-HLPC on an Acquity H-Class UPLC with an analytical PDA detector using Empower 3 software (Waters). All samples were performed with technical replicates and analyzed by UPLC in duplicate and the experiment repeated once. […] A time 0 h sample was collected, and the remaining suspension incubated at 37 °C for 24 h. Samples were processed by addition of 5% formic acid/5% acetonitrile, vortexed, and clarified at 22,000×g for 10 min. Supernatant MTD12813 was then quantified by LC–MS/MS as described in PK section above. All samples were performed with technical replicates and analyzed by LC–MS/MS in duplicate.

Kp-1705 [3] = experiment: Bacterial burden in Kp-1705 infected mice; type: in vivo, BALB/c mice; conditions: 1.25 mg/kg i.p. 1 h p.i.
Method: BALB/c mice (Jackson Laboratories) 8–10 weeks of age were acclimated (3–5 to a cage for at least 5 days prior to infection) in a thermostatically controlled room with 12 h light/dark cycle. Cryopreserved K. pneumoniae cells were thawed and adjusted to a density of 6–10 × 10^8 CFU/ml, confirmed by plating on trypticase soy agar (TSA) plates. E. coli BAA-2340 was grown to log-phase in trypticase soy broth, pelleted, washed with PBS, and resuspended in PBS at 0.5–1 × 10^9 CFU/ml. Mice were infected by i.p. injection of 2–5 × 10^8 CFU of Kp-1705 or 3–6 × 10^7 CFU of E. coli BAA-2340 using a 28 g needle in a volume of 0.5 ml. Post-infection, mice were observed three times a day for at least 4 days and then daily for 28 days. Mice were euthanized when they became moribund. All experiments used both male and female mice and were repeated at least twice.
Blood, peritoneal lavage fluid, and spleen homogenates were obtained from mice following by CO2 euthanasia. Citrate-anti-coagulated blood was collected by aseptic cardiac puncture. Peritoneal lavage was performed by injecting 3 ml of PBS into the peritoneal cavity, massaging the abdomen, and then collecting fluid aseptically through a minor incision in the abdominal wall. Spleen was surgically removed and homogenized in sterile PBS using Polytron PT10-35 homogenizer. Samples were serially diluted and plated in triplicate on TSA plates, incubated overnight at 37 °C and colonies counted.

In the case of `CC[C@H](C)[C@@H]1NC(=O)[C@@H]2CSSC[C@H](NC(=O)[C@H]([C@@H](C)CC)NC(=O)[C@@H]3CSSC[C@H](NC1=O)C(=O)N[C@@H](C(C)C)C(=O)NCC(=O)N[C@@H](CCCNC(=N)N)C(=O)NCC(=O)N3)C(=O)N[C@@H](C(C)C)C(=O)N[C@@H](CCCNC(=N)N)C(=O)N[C@@H](CCCNC(=N)N)C(=O)N[C@@H](CCCNC(=N)N)C(=O)N2` [MTD12813] (cyclo(CICVGRGCICVRRR); disulfide 1-10, 3-8), the “bacterial viability and replication fitness” value (Kp-1705 [1]) is reported as “no effect on bacterial viability or replication fitness”, the remaining at 24 h, 1.25 µg/ml [2] is reported as 81.3 ± 2.1% and the “reduction of viable bacteria versus saline, PLF” value (Kp-1705 [3]; 4 h p.i.) is reported as 99.5%. The “reduction of viable bacteria versus saline, blood” value (Kp-1705 [3]; 4 h p.i.) was 79.1%, the “reduction of viable bacteria versus saline, spleen” value (Kp-1705 [3]; 4 h p.i.) was 70.4% and the “reduction of bacterial burden, PLF” value (Kp-1705 [3]; 24 h) was 99.8%. The “reduction of bacterial burden, blood” value (Kp-1705 [3]; 24 h) was 93.8% and the “reduction of bacterial burden, spleen homogenates” value (Kp-1705 [3]; 24 h) was 94.4%.
